Reference: patent publication US20070110734A9, “Methods and compositions using cellular asialodeterminants and glycoconjugates for targeting cells to tissues and organs” (Department of Veterans Affairs, Rehabilitation R&D Service, priority 2002, published 2007)
One block for each substance: values may come before it.

What was measured:
HEPG2 (ASGPR+) = experiment: Adherence of NK/LAK activity to HEPG2 monolayers at 23° C; assay type: cell-based, human
Experimental: (§1) This experiment is the same as above, except that the adherence to monolayers was performed at 23° C. and not 4° C., for 2 hours. Two monolayers were used: HEPG2, an ASGPR+ cell line, and CAKI-2 (human renal cell carcinoma), an ASGPR− cell line. The effector cell populations that were used were: an untreated 3-day old LAK preparation (LAK) and the same population treated with Vibrio cholera neuraminidase (LAK/NS) (30 mU/1×10^7 cells/200 μl). The neuraminidase-treated population was the asialopositive lymphocyte control. All cell populations regardless of treatment were greater than 90% viable at the time of assay. Each type of effector population was incubated with media alone, 200 μg/ml ASF or F, as controls. All effectors were assayed on RAJI (LAK-sensitive target; NK-insensitive target) or K562 (NK/LAK-sensitive target); the E:T ratios and the graphic presentation are the same above.
(§2) Five-day LAK preparations (20 U/ml; 1 Dupont unit=44.5 BRMP units) grown in AIM-V (Gibco) were treated (according to the protocols in B. 1.2.3 & 1.2.4) with 3 OmU Vibric Cholera neuramindase, 0.48 mU 2,3-or 10 mu 2,6-silalyltransferase per 107 cells. Some of the effectors were incubated in media, 10% PBS in RPMJ 1640 at 23° C. for 2 hours. 2×107 effectors from the untreated LALK, neuramithdase-treated LAK, LAK treated with 2,3 or 2,6 were suspended in 15 ml media and placed onto either HEPG2 (ASGPR+) or CAKI-2 (ASGPR−) monolayers at 23° C. for 2 hours. The flasks were rocked every 15 minutes. The nonadherent cells from these monolayers were decanted and assayed against K562 and RAJI, in addition to the unadhered controls. The E:T ratios used were 40, 20, 10, and 5 to 1.

CAKI-2 (ASGPR−) = experiment: Adherence of NK/LAK activity to CAKI-2 monolayers at 23° C; assay type: cell-based, human
Experimental: as §1, §2

Caki-2 Targets = experiment: 51Cr-release assay of LAK effectors against CAKI-2 with agent added; assay type: cell-based, human; settings: for % 51Chromium Release from Caki-2 Targets: agent 250 μg per well, 5-day LAK, 4-hour incubation
From the text: A working hypothesis is that LAK/NK cells bind to HEPG2 via at least two receptors or recognition structures: 1) the ASGPR, which binds an asialodeterminant on the LAK/NK population and 2) the “LAK” or “NK” recognition structure for a target epitope. The first should be inhibitable by ASF; the second should not be. Binding to CAKI-2 (ASGPR−) should not be inhibited by ASF and is due to a LAK or NK recognition structure binding to the target epitope. This can be further supported by data derived from experiments (see below) in which 250 μg/well of ASF or F were added to the ^51Cr-release assay of LAK effectors against the labeled target CAKI-2.
(% SPECIFIC RELEASE was determined from quadruplicates whose raw counts per minute differed by less than 10 percent; the assay was a standard 4-hour incubation.)

[1] = system: RAJI (LAK-sensitive target; NK-insensitive target); experiment: Cytotoxic capacity of LAK effectors in 51Cr-release assay on RAJI; assay type: cell-based, human; settings: for LAK activity (killing of RAJI) after enzyme treatment of effector cell surface: enzyme-treated LAK cells
Experimental: Control cells (no IL-2 treatment) or LAK cells (IL-2-treated human peripheral blood lymphocytes cultured 10U IL-2/ml for 3 days) were adhered to a monolayer of HEP G2 cells for 2 hours at 4° C. The monolayer was pretreated either with asialofetuin (ASF, 200 μg/ml) in media or with fetuin (F, control, 200 μg/ml)) in media. After the Control or LAK cells had been incubated on the monolayer, these cells were then decanted, washed, and tested for cytotoxic capacity in a ^51Cr-release assay against the NK-resistant target, Raji.
as §1, §2

[2] = system: K562 (NK/LAK-sensitive target); experiment: Cytotoxic capacity of IL-2 activated NK effectors in 51Cr-release assay on K562; assay type: cell-based, human
Experimental: as §1, §2

[3] = system: human CD34+ (hCD34+) peripheral blood stem cells; experiment: In vivo trafficking of 111In-labeled human CD34+ stem cells (HSC) after glycoprotein infusion, gamma camera imaging; set-up: species or system NOD-SCID mice; settings: for organ localization of infused hematopoietic (CD34+) stem cells, in words: cells preceded by infusion of the protein, jugular vein, immunodeficient mice
Experimental: Intravenous cannulas were placed into the external jugular vein of NOD-SCID mice under anesthesia (Institutional Animal Care and Use Committee protocol #AM87046-07) to enable the efficient delivery of ^111In-labeled stem cells i.v. Tylenol elixir was administered by mouth after recovery from anesthesia. Briefly radiolabeled CD34+ cells were taken up in 100-250 ul of 5% human plasma albumin in saline and injected into the cannula and then flushed with 50 ul of the albumin-saline. The mice were imaged by nuclear medicine.
Mice: NOD-SCID, female mice (Nonobese diabetic/LtSz-scid/scid) were obtained from the Jackson Laboratory, Bar Harbor, Me. at 1-2 months of age. These animals were maintained in microisolator cages in a special isolator room. The air was HEPA filtered, and the animals were changed in a laminar flow hood within the facility. All food, bedding, and water was sterilized. […] See, e.g. Hogan, et al., Biology of Blood & Marrow Transplantation 3:236-246 (1997); Noort, et al., Bone Marrow Transplantation 22 Suppl 1:S58-60 (1998).
(§3) ^111Indium Oxine Labeling Procedure: ^111In-oxine labeling of adult human CD34+ or mesenchymal stem cells (hMSCs) was performed using a modification of the Amersham Healthcare Procedure for labeling autologous leukocytes.
(§4) Imaging procedures: Nuclear Medicine. NOD-SCID mice were anesthetized using rodent anesthesia cocktail. Once anesthetized, the mice were placed on a foam hemi-cylindrical mouse positioning device (MPD) and covered with a tube sock. The MPD allows better visual separation of the lungs and liver as compared to placing the mouse on a flat surface. The foam on which the mouse was placed, and the tube sock covering maintained a comfortable temperature permitting longer imaging without additional anesthesia. The MPD was placed on a narrow table between the dual heads of a Siemens E.Cam Gamma Camera and imaged statically or dynamically in 2-D or SPECT. ^57Co-Spot Marker is used to mark anatomic positions (nose, tail, cannula, etc.). The data was analyzed using a Siemens ICON system for regions of interest or percent of injected dose (e.g. liver, spleen, heart).
(§5) Gamma camera imaging using a Siemens E. Cam dual head gamma camera monitored the in vivo trafficking patterns of all human stem cells described in the following examples. Mice were placed on a Mouse Positioning Device (MPD) and placed between the detectors on the imaging platform.
5.75×10^6 111In-labeled human CD34+ (hCD34+) peripheral blood stem cells were administered intravenously (i.v.) via an external jugular vein cannula to 2 month old, NOD-SCID, female mice (Non-obese diabetic/LtSz-scid/scid) obtained from the Jackson Laboratory, Bar Harbor, Me. The radiolabeled CD34+ stem cells were administered after pretreatment of the mouse with 3.3 mg of asialoorosomucoid (ASO) i.v. The in vivo trafficking patterns were followed by gamma camera imaging using a Siemens E.Cam dual head gamma camera from immediately after injection up to 36 hr postinfusion. Human CD34+ were isolated from apheresis stem cell collection products derived from deceased cancer patients. They were purified to 95-99% purity using antibody conjugated to CD34 conjugated to magnetics beads (MACS) separation columns; Miltenyi Biotec, Auburn, Calif. and cryopreserved.
5.75×10^6 111In-labeled human CD34+ (hCD34+) peripheral blood stem cells were administered intravenously (i.v.) via an external jugular vein cannula to 2 month old, NOD-SCID, female mice (Non-obese diabetic/LtSz-scid/scid) obtained from the Jackson Laboratory, Bar Harbor, Me. The radiolabeled CD34+ stem cells were administered after pretreatment of the mouse with 5.5 mg of orosomucoid (O) i.v.
The preparation and procedures set forth in Example I were repeated. […]

[4] = system: human mesenchymal stem cells (MSC); experiment: In vivo trafficking of 111In-labeled human mesenchymal stem cells (MSC) after glycoprotein infusion, gamma camera imaging; set-up: species or system NOD-SCID mice; settings: for % Infused Cells in Liver/Spleen: 0.56×10^6 MSC preceded by 4.3 mg ASO followed by 5.5 mg orosomucoid i.v.
Experimental: Human mesenchymal stem cells (hMSCs; PT-2501) obtained through a FDA monitored paid bone marrow donor program were purchased from Poietics Technologies, BioWhittaker (Walkerville, Md.). The cells were thawed according to manufacturer recommendations, resuspended, and radiolabeled in Mesenchymal Stem Cell Basal Medium (MSCBM).
as §3, §4, §5
MSC were obtained from BioWhittaker, (Poietics Division, cryopreserved PT-2501 >750,000 cells per ampoule) and labeled with ^111In as in previous examples, except that the MSC were labeled, washed, and injected in Basal Stem Cell Medium (Poietics) containing 5% human serum albumin (HSA). 0.56×10^6 111In labeled, human mesenchymal stem cells (MSC) were administered via an implanted Da Vinci Microport Vascular System cannula in the external jugular vein of a two-month old, female NOD-SCID mouse in 0.21 ml of basal stem cell medium containing 5% human serum albumin (HSA). Immediately prior to administration of MSC, 11.0 mg of orosomucoid was administered i.v. in 0.2 ml.
0.56×10^6 “In-labeled, MSC were administered i.v. in 0.21 ml of basal stem cell medium containing 5% human serum albumin (HSA). Prior to administration of MSC, 0.1 ml containing 4.3 mg of ASO, followed by 0.1 ml containing 5.5 mg orosomucoid were administered i.v. The ASO, orosomucoid and MSC were administered via an implanted Da Vinci Microport Vascular system cannula in the external jugular vein of a two-month old, female NOD-SCID mouse.

inhibition of adherence of LAK activity of the neuraminidase-treated population to HEPG2 (HEPG2 (ASGPR+); 23° C, 200 μg/ml, assayed on RAJI): not
Substance: fetuin [reference compound]
inhibition of adherence to HEPG2 of LAK activity (assayed on RAJI) (HEPG2 (ASGPR+); 23° C, 200 μg/ml): could not be inhibited | inhibition of adherence to HEPG2 of IL-2 activated NK (assayed on K562) (HEPG2 (ASGPR+); 23° C, with or without neuraminidase treatment, 200 μg/ml): not | inhibition of adherence to CAKI-2 of IL-2 activated NK or LAK activity (CAKI-2 (ASGPR−); 23° C, 200 μg/ml): could not be inhibited | % 51Chromium Release from Caki-2 Targets (Caki-2 Targets; E:T 5:1): 16% | % 51Chromium Release from Caki-2 Targets (Caki-2 Targets; E:T 10:1): 27% | % 51Chromium Release from Caki-2 Targets (Caki-2 Targets; E:T 20:1): 42% | % 51Chromium Release from Caki-2 Targets (Caki-2 Targets; E:T 40:1): 58% | blocking of LAK killing of the tumor target CAKI-2, in words (Caki-2 Targets; preincubation of targets and addition to the assay at 250 μg per well): does not block | activity of LAK or Control preparations incubated with the protein alone versus untreated LAK ([1]; 200 μg/ml for 2 h at 40C, no monolayer): identical activity | ability of effectors (LAK or LAK/NS) to kill RAJI after preincubation with the protein ([1]; 200 μg/ml, 23° C): does not affect | ability of effectors (LAK or LAK/NS) to kill K562 after preincubation with the protein ([2]; 200 μg/ml, 23° C): does not affect

Substance: asialoorosomucoid [ASO]
migration of CD34+ cells to the liver and spleen, in words ([3]; 5.75×10^6 HSC after 3.3 mg ASO i.v., early postinfusion images): did not migrate to the liver and spleen early | organ localization of infused hematopoietic (CD34+) stem cells, in words [3]: migrated immediately to the heart | organ localization of infused hematopoietic (CD34+) stem cells, in words ([3]; listed as asialoorosomucoid): predominantly localize in the heart | % Infused Cells in Liver/Spleen ([4]; 0 hr): 63 ± 5% at 0 hr | % Infused Cells in Liver/Spleen ([4]; 1 hr): 57 ± 7% at 1 hr | organ localization of infused mesenchymal stem cells, in words ([4]; cells preceded by infusion of the protein, jugular vein, immunodeficient mice): localize in the liver

Substance: Neuraminidase: Vibrio cholera neuraminidase used to treat LAK cells and generate cell surface asialodeterminants
adherence of LAK activity to HEPG2 (assayed on RAJI) after cell surface modification (HEPG2 (ASGPR+); 23° C for 2 hours): did not | adherence to CAKI-2 of IL-2 activated NK activity (assayed on K562) after cell surface modification (CAKI-2 (ASGPR−); 5-day LAK, 23° C for 2 hours): promotes adherence | LAK activity (killing of RAJI) after enzyme treatment of effector cell surface [1]: enhances | LAK activity (killing of RAJI) after enzyme treatment of effector cell surface ([1]; listed as neuraminidase): significantly enhanced | IL-2 activated NK (killing K562 targets) after enzyme treatment of effector cell surface ([2]; enzyme-treated LAK cells): does not enhance
